Assay results published in PubChem BioAssay (NCI).
Where “and” joins values, the source holds several entries; their conditions need not be identical. Equal entries are not always repeated.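 1) Cells in 96-well plates. 2) Compound, 48 h, 5 concentrations. 3) Linear interpolation between surrounding doses. 4) Unreached endpoint = highest concentration. Abbreviation: GI50, concentration required for 50% inhibition of growth. TGI denotes the concentration required for complete inhibition of growth.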

How the values were obtained:
Assay in all cases: DTP human tumour cell line panel, 48 h
ACHN renal = system: ACHN renal
NCI-H23 lung = system: NCI-H23 lung
CAKI-1 renal = system: CAKI-1 renal
IGROV1 ovarian = system: IGROV1 ovarian
A498 renal = system: A498 renal
UACC-62 melanoma = system: UACC-62 melanoma
SF-268 CNS = system: SF-268 CNS
HCT-116 colon = system: HCT-116 colon
SK-MEL-2 melanoma = system: SK-MEL-2 melanoma
OVCAR-4 ovarian = system: OVCAR-4 ovarian

SMILES	GI50 (ACHN renal)	TGI (ACHN renal)	GI50 (NCI-H23 lung)	TGI (NCI-H23 lung)	GI50 (CAKI-1 renal)	TGI (CAKI-1 renal)	GI50 (IGROV1 ovarian)	TGI (IGROV1 ovarian)	GI50 (A498 renal)	TGI (A498 renal)	GI50 (UACC-62 melanoma)	TGI (UACC-62 melanoma)	GI50 (SF-268 CNS)	TGI (SF-268 CNS)	GI50 (HCT-116 colon)	TGI (HCT-116 colon)	GI50 (SK-MEL-2 melanoma)	TGI (SK-MEL-2 melanoma)	GI50 (OVCAR-4 ovarian)	TGI (OVCAR-4 ovarian)
COc1ccc(-c2cn3ccnc3c(-c3ccc(Cl)cc3)n2)cc1	10.5 µM	47 µM	4.71 µM	40.3 µM	2.9 µM	11 µM	7.46 µM	> 100 µM	2.31 µM	9.87 µM	19.4 µM	> 100 µM	10.6 µM	64.8 µM	> 100 µM	> 100 µM	35.2 µM	> 100 µM	5.61 µM	> 100 µM
CCOC(=O)NN1C(=O)C(=P(c2ccccc2)(c2ccccc2)c2ccccc2)C(C(=O)OC)=C1C		> 100 µM		> 100 µM		> 100 µM		> 100 µM		> 100 µM		> 100 µM		> 100 µM		> 100 µM		> 100 µM		> 100 µM
Cc1cccc(C=NC23CC4CC(CC(C4)C2)C3)c1		> 100 µM		> 100 µM		> 100 µM		> 100 µM		> 100 µM		> 100 µM		> 100 µM		> 100 µM		> 100 µM		> 100 µM
COc1ccc(/C=C(\C#N)c2cc(OC)c(OC)c(OC)c2)cc1	0.0478 µM	> 100 µM	0.0242 µM	> 100 µM	0.0209 µM	> 100 µM	0.0432 µM	> 100 µM	0.0123 µM	1.58 µM	0.0103 µM	> 100 µM	0.0481 µM	> 100 µM	0.0161 µM	> 100 µM	0.0356 µM	> 100 µM	0.0297 µM	> 100 µM
C/C(=N/NC(N)=S)C(CN1CCOCC1)C(C1=C(O)c2ccccc2OC1)c1ccccc1 (stereo unspecified)		> 100 µM		> 100 µM		> 100 µM		> 100 µM		> 100 µM		> 100 µM		> 100 µM		> 100 µM		> 100 µM		> 100 µM
CCCC(=O)Nc1cc(/C=C/C(=O)N2C[C@@H]3C[C@]34C2=CC(=O)c2[nH]cc(C)c24)n(C)c1		0.796 µM	0.0119 µM	0.645 µM and 0.0939 µM	0.0901 µM	0.571 µM and 0.529 µM		25 µM		0.689 µM and 0.478 µM	0.0972 µM	0.352 µM and 0.222 µM		4.89 µM	0.03 µM	8.32 µM and 69.9 µM	0.151 µM	0.817 µM and 0.287 µM	0.18 µM	1.43 µM and 0.474 µM
CSC(=S)NCc1cn(C)c2ccccc12	21.9 µM	> 100 µM	29.8 µM	87.7 µM	20.8 µM	61.3 µM	26.1 µM	> 100 µM	12.8 µM	29.2 µM	20.1 µM	42.7 µM	23.5 µM	68 µM	50.5 µM	> 100 µM	34.2 µM	> 100 µM	62 µM	> 100 µM
Cc1cc(C)c(-c2c(O)c(Br)c(-c3c(C)cc(C)c(Br)c3C)c(O)c2Br)c(C)c1Br	3.14 µM	13 µM	3.21 µM	11.8 µM	1.66 µM	5.99 µM	3.59 µM	13.9 µM	4.67 µM	20.5 µM	1.54 µM	4.04 µM	3.7 µM	16.4 µM	2.13 µM	5.53 µM	2 µM	6.2 µM	2.56 µM	9.92 µM
COc1c(OC2OC(C)C(O)C(O)C2O)c(OC)c2oc(-c3ccc(O)cc3)cc(=O)c2c1O (stereo unspecified)	30.7 µM	> 100 µM	20.6 µM	57.1 µM	27.6 µM	> 100 µM	18.1 µM	92.2 µM	35.4 µM	> 100 µM	16.6 µM	38.4 µM	33.1 µM	> 100 µM	32.4 µM	> 100 µM	47.4 µM	> 100 µM	29.7 µM	> 100 µM
CCN(CC)c1ccc(/C=N/N=C(N)N)cc1	12.8 µM	64.8 µM	4.59 µM	50.6 µM	6.73 µM	> 100 µM	8.11 µM	55.1 µM	2.25 µM	21.9 µM	4.23 µM	18.1 µM	5.43 µM	82.5 µM	4.85 µM	18.5 µM	2.85 µM	8.33 µM	5.74 µM	39.5 µM
CCNC(=O)COc1ccc(Cl)c(C)c1		> 100 µM		> 100 µM		> 100 µM		> 100 µM		> 100 µM		> 100 µM		> 100 µM		> 100 µM		> 100 µM		> 100 µM
O=C1C(=O)N(c2cc(Cl)ccc2Cl)C(=O)C(=O)C1c1nc2ccccc2s1		> 100 µM		> 100 µM		> 100 µM		> 100 µM		> 100 µM		> 100 µM		> 100 µM		> 100 µM		> 100 µM		> 100 µM
COc1ccc(C(=O)c2ccccc2)c(O)c1	> 100 µM	> 100 µM	> 100 µM	> 100 µM	67.4 µM	> 100 µM	> 100 µM	> 100 µM	16 µM	> 100 µM	57.1 µM	> 100 µM	55.2 µM	> 100 µM	50.7 µM	> 100 µM	> 100 µM	> 100 µM	> 100 µM	> 100 µM
COc1ccc(C(=O)Cn2c(C(=O)c3ccc(Cl)cc3)nc(-c3ccccc3)c2-c2ccccc2)cc1	34.3 µM	> 100 µM	> 100 µM	> 100 µM	31.2 µM	> 100 µM	67.1 µM	> 100 µM	34.9 µM	> 100 µM	> 100 µM	> 100 µM	> 100 µM	> 100 µM	> 100 µM	> 100 µM	> 100 µM	> 100 µM	94.2 µM	> 100 µM
